Laboratory results taken from ChEMBL document CHEMBL5620440, “Anti-trypanosomal Lignans Isolated from Salvadoran Peperomia pseudopereskiifolia” (J Nat Prod, 2024).
Calls of active or inactive are those of the source. The rule behind the calls is not given here.

Tests used:
[1] = test system: Trypanosoma cruzi; test: Antitrypanosomal activity against Trypanosoma cruzi Tulahuen amastigotes infected in human HT-1080 cells assessed as reduction in parasite growth by microscopic analysis; assay type: functional, organism-based
[2] = Selectivity index, ratio of CC50 for cytotoxicity for human HT-1080 cells to IC50 for antitrypanosomal activity against Trypanosoma cruzi Tulahuen infected in human HT-1080 cells; assay type: toxicity, cell-based; conditions: read-out: Ratio CC50/IC50
[3] = Cytotoxicity against human HT-1080 cells assessed reduction in cell viability; assay type: toxicity, cell-based
[4] = test system: Trypanosoma cruzi; test: Potency index, ratio of benznidazole IC50 to test compound IC50 for antitrypanosomal activity against Trypanosoma cruzi Tulahuen amastigotes infected in human HT-1080 cells assessed as reduction in parasite growth by microscopic analysis; assay type: functional

Compound | Activity [1] | selectivity ratio [2] | CC50 [3] | IC50 [1] | Ratio IC50 [4]
COc1cc([C@@H]2OC[C@H]([C@H](O)c3ccc(OC)c(OC)c3)[C@H]2COC(C)=O)ccc1O | inactive |  |  |  | 
COc1ccc([C@@H](O)[C@H]2CO[C@@H](c3ccc(OCc4ccccc4)c(OC)c3)[C@@H]2COC(C)=O)cc1OC |  | > 35.7 | > 100 µM | 2.8 µM | 
COc1ccc([C@@H](O)[C@H]2CO[C@@H](c3ccc(OC)c(OC)c3)[C@@H]2CO)cc1OC | inactive |  |  |  | 
COc1cc([C@@H]2OC[C@H]([C@H](O)c3ccc(OC)c(OC)c3)[C@H]2CO)ccc1O | inactive |  |  |  | 
CCOc1ccc([C@@H]2OC[C@H](C(=O)c3ccc(OC)c(OC)c3)[C@H]2COC(C)=O)cc1OC | inactive |  |  |  | 
COc1ccc([C@@H](O)[C@H]2CO[C@@H](c3ccc(OC)c(OC)c3)[C@@H]2COC(C)=O)cc1OC |  | > 9.52 | > 100 µM | 10.5 µM | 
COc1c([C@H]2OC[C@H]3[C@H]2CO[C@@H]3c2ccc3c(c2)OCO3)ccc2c1OCO2 |  | > 250 | > 100 µM | 0.4 µM | ~3
O=C(Cn1ccnc1[N+](=O)[O-])NCc1ccccc1 [BENZNIDAZOLE] |  | > 90.9 | > 100 µM | 1.1 µM | 
CCOc1ccc([C@@H]2OC[C@H]([C@H](O)c3ccc(OC)c(OC)c3)[C@H]2COC(C)=O)cc1OC |  | > 30.3 | > 100 µM | 3.3 µM | 
